# Experiments:
# Test in all cases: Kinase profiling in a biochemical assay panel (mobility shift assays and ELISA), %-inhibition at 1 μM; selectivity entropy
# [1] = target: T1, panel of more than 300 wild-type and mutant kinases (313 kinase panel) (Homo sapiens, UniProt Q99683); conditions: kinase MAP3K5; compound at 1 μM
# T1 sequence (Q99683 1-1374): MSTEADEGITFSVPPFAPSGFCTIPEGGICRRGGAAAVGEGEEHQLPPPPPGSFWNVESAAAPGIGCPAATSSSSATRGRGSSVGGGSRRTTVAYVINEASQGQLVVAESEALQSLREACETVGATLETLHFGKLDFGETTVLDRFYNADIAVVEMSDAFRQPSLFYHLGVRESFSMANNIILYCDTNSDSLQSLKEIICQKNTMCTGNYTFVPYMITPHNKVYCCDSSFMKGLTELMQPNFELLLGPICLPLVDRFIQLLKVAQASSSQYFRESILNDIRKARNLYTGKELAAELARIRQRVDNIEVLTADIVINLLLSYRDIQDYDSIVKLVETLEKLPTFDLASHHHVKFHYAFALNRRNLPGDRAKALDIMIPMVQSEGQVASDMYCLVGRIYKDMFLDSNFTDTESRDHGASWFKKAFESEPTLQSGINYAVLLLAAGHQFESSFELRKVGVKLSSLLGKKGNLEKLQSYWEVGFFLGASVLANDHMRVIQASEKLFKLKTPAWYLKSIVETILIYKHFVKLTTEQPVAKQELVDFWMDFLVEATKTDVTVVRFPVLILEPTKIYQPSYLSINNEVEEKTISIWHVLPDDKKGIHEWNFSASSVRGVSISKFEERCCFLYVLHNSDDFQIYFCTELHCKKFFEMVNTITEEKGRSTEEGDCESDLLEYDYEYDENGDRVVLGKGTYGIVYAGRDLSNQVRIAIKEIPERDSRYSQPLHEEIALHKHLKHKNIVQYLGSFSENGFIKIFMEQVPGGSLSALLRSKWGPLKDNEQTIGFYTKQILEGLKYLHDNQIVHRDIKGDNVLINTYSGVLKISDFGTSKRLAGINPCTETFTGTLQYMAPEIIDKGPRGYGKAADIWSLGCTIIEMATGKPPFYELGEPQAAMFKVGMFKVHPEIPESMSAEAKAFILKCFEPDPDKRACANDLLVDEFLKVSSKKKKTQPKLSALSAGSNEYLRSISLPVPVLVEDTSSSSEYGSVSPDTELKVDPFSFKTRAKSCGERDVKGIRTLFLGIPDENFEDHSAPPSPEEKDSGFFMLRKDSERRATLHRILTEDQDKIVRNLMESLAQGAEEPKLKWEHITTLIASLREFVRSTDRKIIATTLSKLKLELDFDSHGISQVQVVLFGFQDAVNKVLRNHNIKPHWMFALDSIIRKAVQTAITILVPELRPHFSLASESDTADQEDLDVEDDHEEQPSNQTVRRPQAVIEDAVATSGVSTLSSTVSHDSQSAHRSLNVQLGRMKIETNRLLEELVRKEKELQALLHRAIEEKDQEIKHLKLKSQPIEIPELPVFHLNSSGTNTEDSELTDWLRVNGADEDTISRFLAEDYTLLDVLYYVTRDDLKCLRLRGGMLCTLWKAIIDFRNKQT
# [2] = target: panel of more than 300 wild-type and mutant kinases (313 kinase panel) (Homo sapiens, UniProt Q15418); conditions: kinase RSK1; 1 μM
# [3] = target: panel of more than 300 wild-type and mutant kinases (313 kinase panel) (Homo sapiens, UniProt P16234, V561D); conditions: kinase PDGFRα(V561D); 1 μM
# [4] = target: T2, panel of more than 300 wild-type and mutant kinases (313 kinase panel) (Homo sapiens, UniProt P52564); conditions: kinase MAP2K6; compound at 1 μM
# T2 sequence (P52564 1-334): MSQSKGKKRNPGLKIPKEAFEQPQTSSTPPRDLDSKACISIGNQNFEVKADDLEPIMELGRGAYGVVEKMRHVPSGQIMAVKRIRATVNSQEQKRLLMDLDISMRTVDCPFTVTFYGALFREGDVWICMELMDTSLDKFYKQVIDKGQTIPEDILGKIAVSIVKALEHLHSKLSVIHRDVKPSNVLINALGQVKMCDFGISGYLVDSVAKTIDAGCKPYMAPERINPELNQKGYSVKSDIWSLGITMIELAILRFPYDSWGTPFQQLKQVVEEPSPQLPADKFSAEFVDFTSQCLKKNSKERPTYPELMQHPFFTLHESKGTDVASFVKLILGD
# [5] = target: panel of more than 300 wild-type and mutant kinases (313 kinase panel) (Homo sapiens, UniProt Q9H2X6); conditions: kinase HIPK2; compound at 1 μM
# [6] = target: T3, panel of more than 300 wild-type and mutant kinases (313 kinase panel) (Homo sapiens, UniProt Q99759); conditions: kinase MAP3K3; compound at 1 μM
# T3 sequence (Q99759 1-626): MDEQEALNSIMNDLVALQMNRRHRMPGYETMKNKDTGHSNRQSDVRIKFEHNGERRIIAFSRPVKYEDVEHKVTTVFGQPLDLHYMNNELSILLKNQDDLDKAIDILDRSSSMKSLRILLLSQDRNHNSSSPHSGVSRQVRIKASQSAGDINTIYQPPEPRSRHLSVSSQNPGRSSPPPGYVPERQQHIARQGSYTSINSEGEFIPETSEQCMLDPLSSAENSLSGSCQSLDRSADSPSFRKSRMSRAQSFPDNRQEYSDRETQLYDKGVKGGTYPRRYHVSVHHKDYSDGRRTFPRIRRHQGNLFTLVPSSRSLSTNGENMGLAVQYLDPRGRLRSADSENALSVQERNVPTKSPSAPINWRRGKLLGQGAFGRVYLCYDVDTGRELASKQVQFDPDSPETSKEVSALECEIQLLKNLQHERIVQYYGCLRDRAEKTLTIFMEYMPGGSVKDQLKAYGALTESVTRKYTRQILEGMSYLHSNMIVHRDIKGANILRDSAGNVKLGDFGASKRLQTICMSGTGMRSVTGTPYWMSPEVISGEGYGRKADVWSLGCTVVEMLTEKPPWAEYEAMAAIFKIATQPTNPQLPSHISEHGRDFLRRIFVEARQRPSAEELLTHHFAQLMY
# panel of more than 300 wild-type and mutant kinases (313 kinase panel) (Homo sapiens, UniProt P16234, V561D), sequence (P16234 24-1089 V561D): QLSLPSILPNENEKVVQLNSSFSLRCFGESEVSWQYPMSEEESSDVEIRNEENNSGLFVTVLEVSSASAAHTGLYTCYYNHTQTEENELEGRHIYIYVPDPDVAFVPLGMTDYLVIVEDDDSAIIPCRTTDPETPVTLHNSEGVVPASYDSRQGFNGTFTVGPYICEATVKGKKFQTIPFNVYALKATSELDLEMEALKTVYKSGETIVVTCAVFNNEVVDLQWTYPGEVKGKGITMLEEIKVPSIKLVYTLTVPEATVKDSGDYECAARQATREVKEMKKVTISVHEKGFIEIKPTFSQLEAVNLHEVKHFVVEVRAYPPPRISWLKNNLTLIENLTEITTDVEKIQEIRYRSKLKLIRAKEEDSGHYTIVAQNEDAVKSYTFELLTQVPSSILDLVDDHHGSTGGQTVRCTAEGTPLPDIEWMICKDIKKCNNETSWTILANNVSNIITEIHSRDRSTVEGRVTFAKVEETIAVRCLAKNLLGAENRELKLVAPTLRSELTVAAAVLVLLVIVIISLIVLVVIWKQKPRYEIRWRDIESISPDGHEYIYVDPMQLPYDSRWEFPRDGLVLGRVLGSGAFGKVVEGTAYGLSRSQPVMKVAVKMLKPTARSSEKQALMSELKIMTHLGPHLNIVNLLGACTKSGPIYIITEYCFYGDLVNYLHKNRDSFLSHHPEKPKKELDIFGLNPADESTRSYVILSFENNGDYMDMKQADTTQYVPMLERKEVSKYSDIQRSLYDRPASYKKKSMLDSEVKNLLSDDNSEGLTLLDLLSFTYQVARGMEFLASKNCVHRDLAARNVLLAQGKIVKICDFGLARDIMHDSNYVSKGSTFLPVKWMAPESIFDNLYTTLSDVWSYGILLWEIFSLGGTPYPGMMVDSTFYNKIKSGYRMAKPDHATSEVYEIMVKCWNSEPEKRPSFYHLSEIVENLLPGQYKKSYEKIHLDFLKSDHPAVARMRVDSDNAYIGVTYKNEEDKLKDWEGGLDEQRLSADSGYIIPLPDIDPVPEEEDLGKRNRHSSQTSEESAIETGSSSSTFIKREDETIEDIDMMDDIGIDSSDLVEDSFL
compound,measurement,setting,value
CC(=O)Nc1cccc(-n2c(=O)n(C3CC3)c(=O)c3c(Nc4ccc(I)cc4F)n(C)c(=O)c(C)c32)c1 [trametinib],%-inhibition of MAP3K5,[1],17%
same,%-inhibition of RSK1,[2],-10%
same,%-inhibition of PDGFRα(V561D),[3],2.22%
same,%-inhibition of MAP2K6,[4],-21%
same,%-inhibition of HIPK2,[5],0.155%
same,%-inhibition of MAP3K3,[6],-6.63%

# From paper PMC3961306, “Comparison of the Cancer Gene Targeting and Biochemical Selectivities of All Targeted Kinase Inhibitors Approved for Clinical Use” (PLoS ONE, 2014)
